# According to patent US6642217B2, “Triterpenes having human antifungal and antiyeast activity” (Naturtek, LLC, priority 2000, dated 2003):
# Experiments:
# Microsporum audouinni [1] = experiment: Direct addition method, solid compound in Sabouraud dextrose agar; assay type: cell-based, Microsporum audouinii; design: key to Fungal growth: +++: Maximum Fungal Growth; ++: Moderate Fungal Growth; +: Minimum Fungal Growth; +/−: Very little Fungal Growth; −: No Fungal Growth; conditions: for Fungal growth: 4 mg/mL of agar, 12th day after inoculation
# Procedure: (§1) Direct addition method. Sabouraud dextrose agar was prepared according to the manufacturer's instructions and 5.0 ml was dispensed in each 100×25 mm tube. The tubes were autoclaved. To each tube containing 5.0 ml of liquid agar at 45° C., 20 mg of solid test compound was added, to give a final concentration of 4 mg/ml. The agar was solidified in slants. The fungal cultures were then innoculated. The slants were incubated at 25-28 ° C. for 10-12 days, and the growth of the fungus was recorded every second day. The results in Table 2 indicate growth at the 12th day of inoculation.
# Pityrosporum ovale [2] = experiment: Direct addition into the Pityrosporum agar; assay type: cell-based; design: key to Pityrosporum ovale growth: +++: Maximum Growth; ++: Moderate Growth; +: Minimum Growth; +/−: Very Little Growth; −: No Growth; conditions: for Pityrosporum ovale growth: 4 mg/ml in the agar, 18 hours after inoculation
# Procedure: as §1, with “The slants were incubated at 25-28 ° C. for 10-12 days, and the growth of the fungus was recorded every second day. The results in Table 2 indicate growth at the 12th day of inoculation.” left out
# Epidermophyton floccosum [3] = experiment: Direct addition method, solid compound in Sabouraud dextrose agar; assay type: cell-based; design: key: +++: Maximum Fungal Growth; ++: Moderate Fungal Growth; +: Minimum Fungal Growth; +/−: Very little Fungal Growth; −: No Fungal Growth; conditions: 4 mg/mL of agar; 12th day after inoculation
# Procedure: as §1
# Microsporum canis [4] = experiment: as above; assay type: cell-based; design: key: +++: Maximum Fungal Growth; ++: Moderate Fungal Growth; +: Minimum Fungal Growth; +/−: Very little Fungal Growth; −: No Fungal Growth; conditions: 4 mg/mL of agar; 12th day after inoculation
# Procedure: as §1
# Pityrosporum ovale [5] = experiment: as above; assay type: cell-based; design: key: +++: Maximum Fungal Growth; ++: Moderate Fungal Growth; +: Minimum Fungal Growth; +/−: Very little Fungal Growth; −: No Fungal Growth; conditions: 4 mg/mL of agar; 12th day after inoculation
# Procedure: as §1
# Trichophyton rubrum [6] = experiment: as above; assay type: cell-based; design: key: +++: Maximum Fungal Growth; ++: Moderate Fungal Growth; +: Minimum Fungal Growth; +/−: Very little Fungal Growth; −: No Fungal Growth; conditions: 4 mg/mL of agar; 12th day after inoculation
# Procedure: as §1
# Microsporum canis [7] = experiment: Agar dilution method, growth on Sabouraud dextrose agar slants; assay type: cell-based; design: key: +++: Maximum Fungal Growth; ++: Moderate Fungal Growth; +: Minimum Fungal Growth; +/−: Very little Fungal Growth; −: No Fungal Growth; conditions: 12th day after inoculation
# Procedure: (§2) Agar dilution method. Sabouraud Dextrose Agar (Difco Laboratories, Michigan) was prepared according to the manufacturer's instructions. Five ml was dispensed in a 100×25 mm tube and autoclaved. To each tube containing 5.0 ml of liquid agar at 45° C., 0.5, 0.25, 0.12, or 0.063 ml of a DMSO solution of the compound was added to give the final indicated concentrations in Table 2. The agar was then solidified in slants. Fungal cultures were inoculated. The slants were incubated at 25-28° C. for 10-12 days, and the growth of the fungus was recorded every second day.
# Microsporum gypseum = experiment: as above; assay type: cell-based; design: key: +++: Maximum Fungal Growth; ++: Moderate Fungal Growth; +: Minimum Fungal Growth; +/−: Very little Fungal Growth; −: No Fungal Growth; conditions: 12th day after inoculation
# Procedure: as §2
# Pityrosporum ovale [8] = experiment: as above; assay type: cell-based; design: key: +++: Maximum Fungal Growth; ++: Moderate Fungal Growth; +: Minimum Fungal Growth; +/−: Very little Fungal Growth; −: No Fungal Growth; conditions: 12th day after inoculation
# Procedure: as §2
# Trichophyton rubrum [9] = experiment: as above; assay type: cell-based; design: key: +++: Maximum Fungal Growth; ++: Moderate Fungal Growth; +: Minimum Fungal Growth; +/−: Very little Fungal Growth; −: No Fungal Growth; conditions: 12th day after inoculation
# Procedure: as §2
# Microsporum audouinni [10] = experiment: as above; assay type: cell-based, Microsporum audouinii; design: key: +++: Maximum Fungal Growth; ++: Moderate Fungal Growth; +: Minimum Fungal Growth; +/−: Very little Fungal Growth; −: No Fungal Growth; conditions: 12th day after inoculation
# Procedure: as §2
# Trichophyton tonsuran = experiment: as above; assay type: cell-based, Trichophyton tonsurans; design: key: +++: Maximum Fungal Growth; ++: Moderate Fungal Growth; +: Minimum Fungal Growth; +/−: Very little Fungal Growth; −: No Fungal Growth; conditions: 12th day after inoculation
# Procedure: as §2
# [11] = tested on: Trichophyton mentagrophyte; experiment: as above; assay type: cell-based, Trichophyton mentagrophytes; design: key to Fungal growth: +++: Maximum Fungal Growth; ++: Moderate Fungal Growth; +: Minimum Fungal Growth; +/−: Very little Fungal Growth; −: No Fungal Growth; conditions: for Fungal growth: 12th day after inoculation
# Procedure: as §2
# Epidermophyton floccosum [12] = experiment: as above; assay type: cell-based; design: key to Fungal growth: +++: Maximum Fungal Growth; ++: Moderate Fungal Growth; +: Minimum Fungal Growth; +/−: Very little Fungal Growth; −: No Fungal Growth; conditions: 12th day after inoculation
# Procedure: as §2
# Microsporum audouinii = experiment: Summary of anti-fungal assays (direct addition, agar dilution, liquid culture); assay type: cell-based; conditions: stated in words (Tables 1a/1b, text to Table 5)
# Procedure: This example summarizes the results of various other assays of the anti-fungal activity of betulin derivatives. Table 5 summarizes results using different assay methods—direct addition, agar dilution, and direct addition to liquid culture, as disclosed in the previous three Examples. In some cases, only one type of assay was done with a compound. In other cases, the compound was tested by multiple assays.
SMILES,Fungal growth (Microsporum audouinni [1]),Pityrosporum ovale growth (Pityrosporum ovale [2]),Fungal growth (Epidermophyton floccosum [3]),Fungal growth (Microsporum canis [4]),Fungal growth (Pityrosporum ovale [5]),Fungal growth (Trichophyton rubrum [6]),Fungal growth (Microsporum canis [7]; 125 μg/ml),Fungal growth (Microsporum canis [7]; 250 μg/ml),Fungal growth (Microsporum canis [7]; 500 μg/ml),Fungal growth (Microsporum canis [7]; 1000 μg/ml),Fungal growth (Microsporum gypseum; 125 μg/ml),Fungal growth (Microsporum gypseum; 250 μg/ml),Fungal growth (Microsporum gypseum; 500 μg/ml),Fungal growth (Microsporum gypseum; 1000 μg/ml),Fungal growth (Pityrosporum ovale [8]; 125 μg/ml),Fungal growth (Pityrosporum ovale [8]; 250 μg/ml),Fungal growth (Pityrosporum ovale [8]; 500 μg/ml),Fungal growth (Pityrosporum ovale [8]; 1000 μg/ml),Fungal growth (Trichophyton rubrum [9]; 125 μg/ml),Fungal growth (Trichophyton rubrum [9]; 250 μg/ml),other results
CC1(C)CCC23CCC4(C)C(CCC5C6(C)CCC(OC(=O)CN)C(C)(C)C6CCC54C)C2C1OC3 (stereo not shown) [Allobetulin-3-glycine],+,+,−,+,−,++,,,,,,,,,,,,,,,
"C=C(C)[C@@H]1CC[C@]2(COC(=O)COCC(=O)O)CC[C@]3(C)[C@H](CC[C@@H]4[C@@]5(C)CC[C@H](OC(=O)COCC(=O)O)C(C)(C)[C@@H]5CC[C@]43C)[C@@H]12 [Betulin-3,28-didiglycolate]",,,,,,,+++,+++,+,−,+++,+++,++,−,+++,+++,++,+/−,++,+,Fungal growth (Trichophyton rubrum [9]; 500 μg/ml): +; Fungal growth (Trichophyton rubrum [9]; 1000 μg/ml): −; Fungal growth (Microsporum audouinni [10]; 125 μg/ml): ++; Fungal growth (Microsporum audouinni [10]; 250 μg/ml): ++; Fungal growth (Microsporum audouinni [10]; 500 μg/ml): −; Fungal growth (Microsporum audouinni [10]; 1000 μg/ml): −; Fungal growth (Trichophyton tonsuran; 125 μg/ml): ++; Fungal growth (Trichophyton tonsuran; 250 μg/ml): +; Fungal growth (Trichophyton tonsuran; 500 μg/ml): +; Fungal growth (Trichophyton tonsuran; 1000 μg/ml): −; Fungal growth ([11]; 125 μg/ml): +; Fungal growth ([11]; 250 μg/ml): +; Fungal growth ([11]; 500 μg/ml): +/−; Fungal growth ([11]; 1000 μg/ml): −; best antifungal or anti-yeast activity by the agar dilution method ([11]; against Trichophyton mentagrophytes): against Trichophyton mentagrophytes; Fungal growth (Epidermophyton floccosum [12]; 125 μg/ml): ++; Fungal growth (Epidermophyton floccosum [12]; 250 μg/ml): +; Fungal growth (Epidermophyton floccosum [12]; 500 μg/ml): −; Fungal growth (Epidermophyton floccosum [12]; 1000 μg/ml): −
"C=C(C)[C@@H]1CC[C@]2(COC(=O)CCCC(=O)O)CC[C@]3(C)[C@H](CC[C@@H]4[C@@]5(C)CC[C@H](OC(=O)CCCC(=O)O)C(C)(C)[C@@H]5CC[C@]43C)[C@@H]12 [Betulin-3,28-diglutarate]",+,+/−,−,+,−,+,,,,,,,,,,,,,,,Growth inhibition of Pityrosporum ovale by the direct addition method (Pityrosporum ovale [2]; 4 mg/ml): inhibited the growth
"C=C(C)[C@@H]1CC[C@]2(COC(=O)/C=C\C(=O)O)CC[C@]3(C)[C@H](CC[C@@H]4[C@@]5(C)CC[C@H](OC(=O)/C=C\C(=O)O)C(C)(C)[C@@H]5CC[C@]43C)[C@@H]12 [Betulin-3,28-dimaleate]",−,+,−,+,−,+,,,,,,,,,,,,,,,best anti-fungal or anti-yeast activity by the direct addition method (Microsporum audouinni [1]; against Microsporum audouinii): against Microsporum audouinii; Active against Microsporum audouinii (Microsporum audouinii): Microsporum audouinii
C=C(C)C1CCC2(CO)CCC3(C)C(CCC4C5(C)CCC(OC(=O)C=CC(=O)O)C(C)(C)C5CCC43C)C12 (stereo not shown) [Betulin-3-maleate],,,,,,,+,+/−,+/−,−,+++,++,++,−,+++,+++,++,+/−,++,++,Fungal growth (Trichophyton rubrum [9]; 500 μg/ml): +; Fungal growth (Trichophyton rubrum [9]; 1000 μg/ml): −; Fungal growth (Microsporum audouinni [10]; 125 μg/ml): +/−; Fungal growth (Microsporum audouinni [10]; 250 μg/ml): +/−; Fungal growth (Microsporum audouinni [10]; 500 μg/ml): −; Fungal growth (Microsporum audouinni [10]; 1000 μg/ml): −; Fungal growth (Trichophyton tonsuran; 125 μg/ml): ++; Fungal growth (Trichophyton tonsuran; 250 μg/ml): ++; Fungal growth (Trichophyton tonsuran; 500 μg/ml): +; Fungal growth (Trichophyton tonsuran; 1000 μg/ml): −; Fungal growth ([11]; 125 μg/ml): ++; Fungal growth ([11]; 250 μg/ml): +; Fungal growth ([11]; 500 μg/ml): +/−; Fungal growth ([11]; 1000 μg/ml): −; Fungal growth (Epidermophyton floccosum [12]; 125 μg/ml): ++; Fungal growth (Epidermophyton floccosum [12]; 250 μg/ml): +; Fungal growth (Epidermophyton floccosum [12]; 500 μg/ml): −; Fungal growth (Epidermophyton floccosum [12]; 1000 μg/ml): −
"COC1=CC(=O)C[C@@H](C)[C@]12Oc1c(Cl)c(OC)cc(OC)c1C2=O [Griseofulvin, reference compound]",−,+,−,−,−,−,+/−,+/−,−,−,+/−,+/−,−,−,+++,+++,++,−,+/−,+/−,Fungal growth (Trichophyton rubrum [9]; 500 μg/ml): −; Fungal growth (Trichophyton rubrum [9]; 1000 μg/ml): −; Fungal growth (Microsporum audouinni [10]; 125 μg/ml): −; Fungal growth (Microsporum audouinni [10]; 250 μg/ml): −; Fungal growth (Microsporum audouinni [10]; 500 μg/ml): −; Fungal growth (Microsporum audouinni [10]; 1000 μg/ml): −; Fungal growth (Trichophyton tonsuran; 125 μg/ml): +/−; Fungal growth (Trichophyton tonsuran; 250 μg/ml): +/−; Fungal growth (Trichophyton tonsuran; 500 μg/ml): −; Fungal growth (Trichophyton tonsuran; 1000 μg/ml): −; Fungal growth ([11]; 125 μg/ml): ++; Fungal growth ([11]; 250 μg/ml): +; Fungal growth ([11]; 500 μg/ml): −; Fungal growth ([11]; 1000 μg/ml): −; Fungal growth (Epidermophyton floccosum [12]; 125 μg/ml): ++; Fungal growth (Epidermophyton floccosum [12]; 250 μg/ml): +; Fungal growth (Epidermophyton floccosum [12]; 500 μg/ml): −; Fungal growth (Epidermophyton floccosum [12]; 1000 μg/ml): −
C=C(C)C1CCC2(C)CCC3(C)C(CCC4C5(C)CCC(OC(=O)CCC(=O)O)C(C)(C)C5CCC43C)C12 (stereo not shown) [Lupeol-3-succinate],+,+,−,+,−,+,,,,,,,,,,,,,,,
